Earlier results as cited in publication PMC2751796 (Pharmacology & therapeutics, 2009).
Where two headings read alike, the source gives them in different places.

What was measured:
hPXR = conditions: ref Bauer et al., 2006, cited from earlier work
P-gp [1] = conditions: ref Hugnet et al., 1996; Mealey et al., 2001, 2003, 2008; Sartor et al., 2004; cited from earlier work
[2] = cited from earlier work; for Increase of plasma AUC with ritonavir (200 mg twice daily, 5.5 days): ref Mukwaya et al., 2005
P-gp [3] = conditions: cited from earlier work
[4] = cited from earlier work
[5] = test system: MRPs, organic anion transporters; conditions: ref Deguchi et al., 2000; cited from earlier work
[6] = cited from earlier work; remark: listed apart in the source
P-gp [7] = biological target: P-gp (Rattus norvegicus, UniProt Q6PSM0); conditions: cited from earlier work; for Increase in brain-to-plasma AUC ratio with elacridar: studies in rats (so in the source), ref Barraud de Lagerie et al., 2004
P-gp and BCRP = conditions: ref Oostendorp et al., 2009; Chen et al., 2008; cited from earlier work
P-gp [8] = conditions: read-out: Reported EC50; ref Ekins et al., 2002; Rautio et al., 2006; cited from earlier work
P-gp [9] = conditions: four adult rhesus monkeys; ref Warren et al., 2000; cited from earlier work
P-gp [10] = conditions: cited from earlier work; for Fold change in brain uptake ratio in inhibitor-treated vs. control mice / Fold change in brain uptake ratio in inhibitor-treated vs. control mice (value corrected for drug in vasculature): Conc.
Bcrp = conditions: mouse, in vivo; cited from earlier work
[11] = mice, cited from earlier work
P-gp [12] = conditions: parameter not given; ref Saito et al., 2001; cited from earlier work
[13] = 16 mg, eight healthy subjects, ref Sadeque et al., 2000
[14] = Zosuquidar (50 mg/kg, IV), ref Choo et al., 2000
[15] = Valspodar (12.5 mg/kg, IV), ref Choo et al., 2000
[16] = Verapamil (12.5 mg/kg, IV), ref Choo et al., 2000

Sequence of P-gp (Rattus norvegicus, UniProt Q6PSM0) (Q6PSM0 1-1272): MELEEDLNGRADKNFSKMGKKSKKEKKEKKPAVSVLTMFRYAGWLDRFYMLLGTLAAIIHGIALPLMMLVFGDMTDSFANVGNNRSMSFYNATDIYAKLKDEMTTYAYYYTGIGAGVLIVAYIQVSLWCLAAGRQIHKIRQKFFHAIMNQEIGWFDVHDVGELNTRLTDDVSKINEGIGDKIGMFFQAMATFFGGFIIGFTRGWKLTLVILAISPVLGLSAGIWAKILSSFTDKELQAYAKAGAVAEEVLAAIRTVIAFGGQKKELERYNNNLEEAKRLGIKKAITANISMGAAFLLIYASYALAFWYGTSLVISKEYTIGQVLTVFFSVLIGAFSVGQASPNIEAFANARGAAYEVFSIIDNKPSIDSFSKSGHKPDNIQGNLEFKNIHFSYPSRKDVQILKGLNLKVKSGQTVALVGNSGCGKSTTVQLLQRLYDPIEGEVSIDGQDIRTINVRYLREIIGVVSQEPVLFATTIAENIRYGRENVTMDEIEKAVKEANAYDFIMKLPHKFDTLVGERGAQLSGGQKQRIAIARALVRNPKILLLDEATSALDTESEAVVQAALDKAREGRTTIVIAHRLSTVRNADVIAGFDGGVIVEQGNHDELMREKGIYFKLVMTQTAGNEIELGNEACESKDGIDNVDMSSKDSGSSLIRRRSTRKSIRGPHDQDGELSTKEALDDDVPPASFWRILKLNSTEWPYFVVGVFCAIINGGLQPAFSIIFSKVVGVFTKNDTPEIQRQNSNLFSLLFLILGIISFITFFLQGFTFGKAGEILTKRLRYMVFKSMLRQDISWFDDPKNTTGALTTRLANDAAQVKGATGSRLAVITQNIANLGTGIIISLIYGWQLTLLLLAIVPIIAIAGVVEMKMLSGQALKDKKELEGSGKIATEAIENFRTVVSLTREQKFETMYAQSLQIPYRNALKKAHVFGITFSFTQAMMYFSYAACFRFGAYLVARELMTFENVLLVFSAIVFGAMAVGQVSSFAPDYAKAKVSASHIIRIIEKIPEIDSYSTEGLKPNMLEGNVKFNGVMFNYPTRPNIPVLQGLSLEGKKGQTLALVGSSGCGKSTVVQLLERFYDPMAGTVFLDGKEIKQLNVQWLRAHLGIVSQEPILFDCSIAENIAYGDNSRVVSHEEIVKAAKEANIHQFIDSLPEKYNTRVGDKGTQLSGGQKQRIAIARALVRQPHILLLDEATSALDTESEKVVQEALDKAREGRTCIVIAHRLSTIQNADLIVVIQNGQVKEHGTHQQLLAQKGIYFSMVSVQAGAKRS

Molecule: CO[C@H]1/C=C/O[C@@]2(C)Oc3c(C)c(O)c4c(O)c(c(/C=N/N5CCN(C)CC5)c(O)c4c3C2=O)NC(=O)/C(C)=C\C=C\[C@H](C)[C@H](O)[C@@H](C)[C@@H](O)[C@@H](C)[C@H](OC(C)=O)[C@@H]1C [Rifampin]
- Predicted average steady state unbound plasma concentration (hPXR; 50 mg/kg, oral, for 3 days): 0.34 µg/mL

Molecule: CN(C)C(=O)C(CCN1CCC(O)(c2ccc(Cl)cc2)CC1)(c1ccccc1)c1ccccc1 [Loperamide]
- Effect of exposure in Collie and other dog breeds that naturally lack P-gp (P-gp [1]): neurological symptoms
- Increase of plasma AUC with 600 mg ritonavir ([2]; 12 healthy volunteers, ref Tayrouz et al., 2001): 2.7 fold
- Increase of plasma AUC with ritonavir (200 mg twice daily, 5.5 days) [2]: 2.2 fold
- Opioid-induced respiratory depression, given alone (P-gp [3]; [13]): did not produce respiratory depression
- Opioid-induced respiratory depression, with quinidine sulfate (600 mg) (P-gp [3]; [13]): respiratory depression occurred
- Effect of tariquidar (150 mg, iv) on plasma concentrations and CNS effects (P-gp [3]; loperamide 32 mg orally, nine healthy volunteers, ref Kurnik et al., 2008): did not significantly affect

Molecule: [^18F]-Paclitaxel
- CNS distribution in untreated subjects (brain / metabolite-corrected plasma AUC ratio) ([4]; ref Kurdziel et al., 2003): 0.05 (brain / metabolite-corrected plasma AUC ratio)

Molecule: Sc1ncnc2nc[nH]c12 [6-mercaptopurine]
- Increase of brain-to-plasma concentration ratio with probenecid in rats [5]: up to 4.4 fold

Molecule: CC[C@]1(O)C[C@H]2CN(CCc3c([nH]c4ccccc34)[C@@](C(=O)OC)(c3cc4c(cc3OC)N(C=O)[C@H]3[C@@](O)(C(=O)OC)[C@H](OC(C)=O)[C@]5(CC)C=CCN6CC[C@]43[C@@H]65)C2)C1 [Vincristine]
- Effect of exposure in Collie and other dog breeds that naturally lack P-gp (P-gp [1]): neurological symptoms

Molecule: O[C@@H](COc1cccc2ncccc12)CN1CCN([C@@H]2c3ccccc3[C@@H]3[C@H](c4ccccc42)C3(F)F)CC1 [Zosuquidar]
- Precipitant drug concentration (CSF) ([6]; in vivo): 8.5 ng/mL

Molecule: O[C@H](c1cc(C(F)(F)F)nc2c(C(F)(F)F)cccc12)[C@@H]1CCCCN1 [(-) mefloquine, mefloquine]
- Increase in brain-to-plasma AUC ratio with elacridar (P-gp [7]): 1.5 times

Molecule: Cc1cn([C@H]2C[C@H](N=[N+]=[N-])[C@@H](CO)O2)c(=O)[nH]c1=O [Zidovudine]
- Precipitant drug concentration (CSF) ([6]; ref Tuntland et al., 1994): 100 to 2200 ng/mL
- Precipitant drug concentration (plasma) ([6]; ref Tuntland et al., 1994): 0.5 to 11.2 µg/mL

Molecule: Cc1nc(Nc2ncc(C(=O)Nc3c(C)cccc3Cl)s2)cc(N2CCN(CCO)CC2)n1 [dasatinib]
- Increase of brain-to-plasma concentration ratio in triple KO mice (P-gp and BCRP): 10 fold

Molecule: CCCN(CCC)S(=O)(=O)c1ccc(C(=O)O)cc1 [probenecid]
- Probenecid CSF concentrations at 2500 mg/m^2 ([2]; ref Bode et al., 1980): 2.4 to 3.4 µg/mL

Molecule: CCC(C)n1ncn(-c2ccc(N3CCN(c4ccc(OCC5COC(Cn6cncn6)(c6ccc(Cl)cc6Cl)O5)cc4)CC3)cc2)c1=O (centres unmarked) [Itraconazole]
- EC50 (P-gp [8]): 0.5 µM

Molecule: COc1cccc2c1C(=O)c1c(O)c3c(c(O)c1C2=O)C[C@@](O)(C(=O)CO)C[C@@H]3O[C@H]1C[C@H](N)[C@H](O)[C@H](C)O1 [Doxorubicin]
- Effect of exposure in Collie and other dog breeds that naturally lack P-gp (P-gp [1]): neurological symptoms
- CNS distribution in untreated subjects (ventricular CSF / plasma conc. ratio) ([4]; ref Warren et al., 2000): < 0.05 (ventricular CSF / plasma conc. ratio)
- CSF concentrations alone or with intravenous cyclosporine (P-gp [9]): below the limit of detection

Molecule: CC(C)(C)NC(=O)[C@@H]1C[C@@H]2CCCC[C@@H]2CN1C[C@@H](O)[C@H](Cc1ccccc1)NC(=O)[C@H](CC(N)=O)NC(=O)c1ccc2ccccc2n1 [Saquinavir]
- EC50 (P-gp [8]): 6.5 µM
- Fold change in brain uptake ratio in inhibitor-treated vs. control mice (P-gp [10]; [14]): ∼ 3.0, Conc. fold

Molecule: Cc1ccc(NC(=O)c2ccc(CN3CCN(C)CC3)cc2)cc1Nc1nccc(-c2cccnc2)n1 [Imatinib]
- Enhancement of brain uptake by valspodar or zosuquidar (P-gp [10]; ref Bihorel et al., 2007): up to 3 fold
- Increase in brain distribution with elacridar in WT mice (P-gp [10]; ref Breedveld et al., 2005, Oostendorp et al., 2009): up to 5 fold

Molecule: CC(C)(C)NC(=O)[C@@H]1CN(Cc2cccnc2)CCN1C[C@@H](O)C[C@@H](Cc1ccccc1)C(=O)N[C@H]1c2ccccc2C[C@H]1O [Indinavir]
- EC50 (P-gp [8]): > 50 µM

Molecule: CC[C@@]1(O)C(=O)OCc2c1cc1n(c2=O)Cc2cc3c(CN(C)C)c(O)ccc3nc2-1 [topotecan lactone]
- Decrease of ventricular CSF-to-plasma AUC ratio with gefitinib (Bcrp): 17%

Molecule: CC[C@H]1OC(=O)[C@H](C)[C@@H](O[C@H]2C[C@@](C)(OC)[C@@H](O)[C@H](C)O2)[C@H](C)[C@@H](O[C@@H]2O[C@H](C)C[C@H](N(C)C)[C@H]2O)[C@](C)(O)C[C@@H](C)C(=O)[C@H](C)[C@@H](O)[C@]1(C)O [Erythromycin]
- EC50 (P-gp [8]): 38 µM

Molecule: CNC(=O)C(CCN1CCC(O)(c2ccc(Cl)cc2)CC1)(c1ccccc1)c1ccccc1 [N-desmethyl-loperamide]
- Increase of plasma AUC with ritonavir (200 mg twice daily, 5.5 days) [2]: 1.4 fold

Molecule: Cc1c(O)cccc1C(=O)N[C@@H](CSc1ccccc1)[C@H](O)CN1C[C@H]2CCCC[C@H]2C[C@H]1C(=O)NC(C)(C)C [Nelfinavir]
- EC50 (P-gp [8]): 1.4 to 44 µM
- Fold change in brain uptake ratio in inhibitor-treated vs. control mice (P-gp [10]; Elacridar (10 mg/kg, IV), ref Salama et al., 2005, Giri et al., 2008): 8.7 fold
- Fold change in brain uptake ratio in inhibitor-treated vs. control mice (value corrected for drug in vasculature) (P-gp [10]; Elacridar (10 mg/kg, IV), ref Salama et al., 2005): 8.9 fold
- Fold change in brain uptake ratio in inhibitor-treated vs. control mice (P-gp [10]; [15]): 10.3 fold
- Fold change in brain uptake ratio in inhibitor-treated vs. control mice (value corrected for drug in vasculature) (P-gp [10]; [15]): 13.3 fold
- Fold change in brain uptake ratio in inhibitor-treated vs. control mice (P-gp [10]; [16]): 1.0 (1.0), Conc. fold
- Fold change in brain uptake ratio in inhibitor-treated vs. control mice (value corrected for drug in vasculature) (P-gp [10]; [16]): 1.0 (1.0), Conc. fold
- Fold change in brain uptake ratio in inhibitor-treated vs. control mice (P-gp [10]; [14]): 18.1 fold
- Fold change in brain uptake ratio in inhibitor-treated vs. control mice (value corrected for drug in vasculature) (P-gp [10]; [14]): 25.1 fold
- Fold change in brain uptake ratio in inhibitor-treated vs. control mice (P-gp [10]; Zosuquidar (50 mg/kg, IV), ref Choo et al., 2000, listed as nelfinavir): up to 18 fold
- CNS distribution in untreated subjects (brain / plasma conc. ratio) ([4]; ref Kaddoumi et al., 2007, Eyal, et al., 2009): 0.04
- CNS distribution in untreated subjects (lumbar CSF / plasma, conc. ratio) ([4]; ref Kaddoumi et al., 2007): 0.006
- Increase in brain uptake with zosuquidar in rats (P-gp [7]; dose-dependent, ref Anderson et al., 2006): ≤ 29 fold

Molecule: O=c1[nH]cnc2c1ncn2[C@H]1CC[C@@H](CO)O1 [Didanosine]
- Precipitant drug concentration (plasma) ([6]; ref Tuntland et al., 1994): 0.9 to 11.3 µg/mL

Molecule: CC(=O)O[C@H]1C(=O)[C@@]2(C)[C@H]([C@H](OC(=O)c3ccccc3)[C@]3(O)C[C@H](OC(=O)[C@H](O)[C@@H](NC(=O)c4ccccc4)c4ccccc4)C(C)=C1C3(C)C)[C@]1(OC(C)=O)CO[C@@H]1C[C@@H]2O [Paclitaxel]
- Increase in brain uptake with elacridar (P-gp [10]; elacridar plasma concentrations <900 ng/ml, ref Kemper et al., 2003): 5 fold

Molecule: C=C[C@H]1C[N@@]2CC[C@H]1C[C@@H]2[C@@H](O)c1ccnc2ccc(OC)cc12 [Quinidine]
- EC50 (P-gp [8]): 2 to 55 µM
- Total concentration achievable in humans treated for tumors ([2]; ref Raderer & Scheithauer, 1993): 4.5 to 5.6 µM
- Inhibitor concentration (plasma) ([11]; 100 mg/kg, IP, ref Fromm et al., 1999): ~2 µM

Molecule: CCC(=O)C(CC(C)N(C)C)(c1ccccc1)c1ccccc1 (centres unmarked) [methadone]
- Decrease of antinociceptive effect after rifampin (hPXR; hPXR transgenic mice, vs. vehicle): 70%

Molecule: C/C=C/C[C@@H](C)C(=O)[C@H]1C(=O)N[C@@H](C(C)C)C(=O)N(C)CC(=O)N(C)[C@@H](CC(C)C)C(=O)N[C@@H](C(C)C)C(=O)N(C)[C@@H](CC(C)C)C(=O)N[C@@H](C)C(=O)N[C@H](C)C(=O)N(C)[C@@H](CC(C)C)C(=O)N(C)[C@@H](CC(C)C)C(=O)N(C)[C@@H](C(C)C)C(=O)N1C [Valspodar]
- Inhibitor concentration (brain) ([11]; 50 mg/kg, PO, ref Mayer et al., 1997): 250 ng/g

Molecule: CC(C)(C)c1ccc(C(O)CCCN2CCC(C(O)(c3ccccc3)c3ccccc3)CC2)cc1 (centres unmarked) [terfenadine]
- Increase in brain uptake with cyclosporine in rats (P-gp [7]; ref Obradovic et al., 2007): several-fold

Molecule: CC(=O)O[C@@]12CO[C@@H]1C[C@H](O)[C@@]1(C)C(=O)[C@H](O)C3=C(C)[C@@H](OC(=O)[C@H](O)[C@@H](NC(=O)OC(C)(C)C)c4ccccc4)C[C@@](O)([C@@H](OC(=O)c4ccccc4)[C@H]21)C3(C)C [Docetaxel]
- Increase in brain uptake by single oral doses of valspodar and elacridar (P-gp [10]; ref Kemper et al., 2004c): up to 2.6 fold

Molecule: O[C@@H](c1cc(C(F)(F)F)nc2c(C(F)(F)F)cccc12)[C@H]1CCCCN1 [(+) mefloquine, mefloquine]
- Increase in brain-to-plasma AUC ratio with elacridar (P-gp [7]): 2.5 times

Molecule: CC[C@]1(O)C[C@@H]2CN(CCc3c([nH]c4ccccc34)[C@@](C(=O)OC)(c3cc4c(cc3OC)N(C)[C@H]3[C@@](O)(C(=O)OC)[C@H](OC(C)=O)[C@]5(CC)C=CCN6CC[C@]43[C@@H]65)C2)C1 [Vinblastine]
- Effect of exposure in Collie and other dog breeds that naturally lack P-gp (P-gp [1]): neurological symptoms
- Increase in brain uptake by valspodar and elacridar (P-gp [10]; ref Cisternino et al., 2001): 3 fold
- Fold change in brain uptake ratio in P-gp KO vs. control mice (P-gp [12]): 3.3 fold
- Fold change in brain uptake ratio in P-gp KO vs. control mice (value corrected for drug in vasculature) (P-gp [12]): 3.4 fold
